Results taken from PMC11079024, “Identification of a family of species-selective complex I inhibitors as potential anthelmintics” (Nature Communications, 2024).
Values joined by “and” are separate entries in the source; they are usually repeats but may differ in a detail not shown here. Equal values may be shown once. Read-outs that look alike come from different tables or passages of the source.

Tested on: anthelmintic/nematicide-resistant C. elegans mutant strains
Test: microbe, parasite or virus in culture
Conditions: for LC50: Caenorhabditis elegans; for dose response data: mev-1 (tr355)
From the text: In addition to the Caenorhabditis elegans wild-type N2 strain, this work included the following C. elegans strains: CB1003 (kynu-1(e1003) X); anthelmintic-resistant strains—CB3474 (ben-1(e1880) III), CB193 (unc-29(e193) I), HY496 (bre-1(ye4) IV), RB2119 (acr-23(ok2804) V), JD608 (avr-14(ad1302) I; avr-15(ad1051) V; glc-1 (pk54) V), NM1968 (slo-1(js379) V), RP2635 (mev-1(tr355) III); benzimidazole-resistant CRISPR strains—ECA882 (ben-1(ean64) III), ECA917 (ben-1(ean98) III), ECA1075 (ben-1(ean143) III), ECA1080 (ben-1(ean148) III). This work also featured several additional free-living nematode strains: C. briggsae strain AF16, P. pacificus strain PS312, and P. hermaphrodita strain B178. The four CRISPR-generated benzimidazole-resistant C. elegans mutants were generously provided by Prof. Erik Andersen (Johns Hopkins University); PS312 and B178 were generously provided by Prof. Peter Roy (University of Toronto); all other strains were obtained from the Caenorhabditis Genetics Center (CGC, University of Minnesota). All strains were cultured and propagated at 20 °C on NGM (nematode growth medium) agar plates seeded with E. coli OP50 (Stiernagle, 2006)[56].
Liquid development and viability assays were adapted from a previously established chemical screening protocol (Burns et al.)[24]. In brief, a saturated culture of E. coli HB101 was concentrated 2-fold in liquid NGM and 40 μL of this suspension was distributed to each well of a 96-well flat-bottom culture plate. 0.5 μL chemical solution (or DMSO alone) was added to each well (1% DMSO v/v) using either a multi-channel pipette or a pinning tool (V&P Scientific). L1 worms synchronized from an embryo preparation performed the day prior were diluted to a concentration of ~2 worms/μL in M9 buffer; 10 μL worm suspension was then added to each well. Culture plates were sealed with parafilm and placed in a plastic container lined with wet paper towels to prevent evaporation. Containers were then incubated for 6 days at 20 °C with shaking at 165 rpm. Following incubation, 300 μL M9 was added to each well to decrease the turbidity of the HB101-NGM suspension. Single images of each microplate well were then taken on a Nikon Ti Eclipse inverted microscope (Nikon NIS Elements AR). Images were processed using Python scripts to isolate worm-associated pixels from background. Scores of worm development and viability were determined as the sum of worm-associated pixels in each well. Development/viability scores for each well were divided by the development /viability scores for the corresponding DMSO controls, resulting in a relative viability value for each chemical. At least three biological replicates were performed for each dose-response experiment; relative viability values were averaged across replicates.
Supplementary Table 2. Sensitivity of anthelmintic/nematicide-resistant strains to Class A, B, and C
benzimidazole complex I inhibitors.
LC50s were estimated from fitted dose-
response curves; all dose response data are the mean of at least three biological replicates.
Supplementary Table 2. Davie et al.

[1] = read-out: C. elegans Development & Viability LC50, acr-23(ok2804)
[2] = read-out: C. elegans Development & Viability LC50, avr-14(ad1302), avr-15(ad1051), glc-1(pk54)
[3] = read-out: C. elegans Development & Viability LC50, ben-1(e1880)
[4] = read-out: C. elegans Development & Viability LC50, bre-1(ye4)
[5] = read-out: C. elegans Development & Viability LC50, mev-1(tr355)
[6] = read-out: C. elegans Development & Viability LC50, slo-1(js379)
[7] = read-out: C. elegans Development & Viability LC50, unc-29(e193)
[8] = CB3474 G104D (ben-1), 1 µM, score 0-1 relative to DMSO, values >1 set to 1
[9] = CB3474 G104D (ben-1), 2 µM, score 0-1 relative to DMSO, values >1 set to 1
[10] = CB3474 G104D (ben-1), 3.9 µM, score 0-1 relative to DMSO, values >1 set to 1
[11] = CB3474 G104D (ben-1), 15.6 µM, score 0-1 relative to DMSO, values >1 set to 1
[12] = CB3474 G104D (ben-1), 31.3 µM, score 0-1 relative to DMSO, values >1 set to 1
[13] = CB3474 G104D (ben-1), 62.5 µM, score 0-1 relative to DMSO, values >1 set to 1
[14] = ECA917 F200Y (ben-1), 1 µM, score 0-1 relative to DMSO, values >1 set to 1
[15] = ECA917 F200Y (ben-1), 2 µM, score 0-1 relative to DMSO, values >1 set to 1
[16] = ECA917 F200Y (ben-1), 3.9 µM, score 0-1 relative to DMSO, values >1 set to 1
[17] = ECA917 F200Y (ben-1), 15.6 µM, score 0-1 relative to DMSO, values >1 set to 1
[18] = ECA1075 F167Y (ben-1), 1 µM, score 0-1 relative to DMSO, values >1 set to 1
[19] = ECA1075 F167Y (ben-1), 2 µM, score 0-1 relative to DMSO, values >1 set to 1
[20] = ECA1075 F167Y (ben-1), 3.9 µM, score 0-1 relative to DMSO, values >1 set to 1
[21] = ECA1075 F167Y (ben-1), 15.6 µM, score 0-1 relative to DMSO, values >1 set to 1
[22] = ECA1080 E198A (ben-1), 1 µM, score 0-1 relative to DMSO, values >1 set to 1
[23] = ECA1080 E198A (ben-1), 2 µM, score 0-1 relative to DMSO, values >1 set to 1
[24] = ECA1080 E198A (ben-1), 3.9 µM, score 0-1 relative to DMSO, values >1 set to 1
[25] = ECA1080 E198A (ben-1), 15.6 µM, score 0-1 relative to DMSO, values >1 set to 1
[26] = ECA1080 E198A (ben-1), 31.3 µM, score 0-1 relative to DMSO, values >1 set to 1

## Cc1nc2ccccc2n1Cc1ccc(Cl)cc1 [STK697993]
[1]
  LC50: 34.9 µM
[2]
  LC50: 28.3 µM
[3]
  LC50: 38.6 µM
[4]
  LC50: 31.1 µM
[5]
  LC50: 28.5 µM
[6]
  LC50: 16.1 µM
[7]
  LC50: 22.9 µM
Concentration step 1 of 13 (c108)
  dose response data: 0.989 and 1.000
Concentration step 4 of 13 (c111)
  dose response data: 0.994 and 1.000

## c1ccc2[nH]c(-c3cscn3)nc2c1 [Thiabendazole]
[8]
  C. elegans L1 relative development & viability: 1.000
[9]
  C. elegans L1 relative development & viability: 1.000
[10]
  C. elegans L1 relative development & viability: 1.000
[11]
  C. elegans L1 relative development & viability: 1.000
[12]
  C. elegans L1 relative development & viability: 1.000
[13]
  C. elegans L1 relative development & viability: 1.000
CB3474 G104D (ben-1), 125 µM, score 0-1 relative to DMSO, values >1 set to 1
  C. elegans L1 relative development & viability: 1.000
CB3474 G104D (ben-1), 250 µM, score 0-1 relative to DMSO, values >1 set to 1
  C. elegans L1 relative development & viability: 1.000
CB3474 G104D (ben-1), 500 µM, […]
  C. elegans L1 relative development & viability: 0.035
[14]
  C. elegans L1 relative development & viability: 1.000
[15]
  C. elegans L1 relative development & viability: 1.000
[16]
  C. elegans L1 relative development & viability: 1.000
[17]
  C. elegans L1 relative development & viability: 1.000
ECA917 F200Y (ben-1), 31.3 µM, score 0-1 relative to DMSO, values >1 set to 1
  C. elegans L1 relative development & viability: 1.000
ECA917 F200Y (ben-1), 62.5 µM, score 0-1 relative to DMSO, values >1 set to 1
  C. elegans L1 relative development & viability: 1.000
ECA917 F200Y (ben-1), 125 µM, score 0-1 relative to DMSO, values >1 set to 1
  C. elegans L1 relative development & viability: 1.000
ECA917 F200Y (ben-1), 250 µM, score 0-1 relative to DMSO, values >1 set to 1
  C. elegans L1 relative development & viability: 1.000
ECA917 F200Y (ben-1), 500 µM, […]
  C. elegans L1 relative development & viability: 0.056
[18]
  C. elegans L1 relative development & viability: 1.000
[19]
  C. elegans L1 relative development & viability: 1.000
[20]
  C. elegans L1 relative development & viability: 1.000
[21]
  C. elegans L1 relative development & viability: 1.000
ECA1075 F167Y (ben-1), 31.3 µM, score 0-1 relative to DMSO, values >1 set to 1
  C. elegans L1 relative development & viability: 1.000
ECA1075 F167Y (ben-1), 62.5 µM, score 0-1 relative to DMSO, values >1 set to 1
  C. elegans L1 relative development & viability: 1.000
ECA1075 F167Y (ben-1), 125 µM, score 0-1 relative to DMSO, values >1 set to 1
  C. elegans L1 relative development & viability: 1.000
ECA1075 F167Y (ben-1), 250 µM, score 0-1 relative to DMSO, values >1 set to 1
  C. elegans L1 relative development & viability: 1.000
ECA1075 F167Y (ben-1), 500 µM, […]
  C. elegans L1 relative development & viability: 0.028
[22]
  C. elegans L1 relative development & viability: 1.000
[23]
  C. elegans L1 relative development & viability: 1.000
[24]
  C. elegans L1 relative development & viability: 1.000
[25]
  C. elegans L1 relative development & viability: 1.000
[26]
  C. elegans L1 relative development & viability: 1.000
ECA1080 E198A (ben-1), 62.5 µM, score 0-1 relative to DMSO, values >1 set to 1
  C. elegans L1 relative development & viability: 1.000
ECA1080 E198A (ben-1), 125 µM, score 0-1 relative to DMSO, values >1 set to 1
  C. elegans L1 relative development & viability: 1.000
ECA1080 E198A (ben-1), 250 µM, score 0-1 relative to DMSO, values >1 set to 1
  C. elegans L1 relative development & viability: 1.000
ECA1080 E198A (ben-1), 500 µM, […]
  C. elegans L1 relative development & viability: 0.041

## CC(C)Cc1ccc(C(C)c2nc3ccccc3n2C)cc1 (stereo not drawn) [NPD8790]
[1]
  LC50: > 1000 µM
[2]
  LC50: > 1000 µM
[3]
  LC50: > 1000 µM
[4]
  LC50: > 1000 µM
[5]
  LC50: > 1000 µM
[6]
  LC50: 177 µM
[7]
  LC50: > 1000 µM

## COC(=O)Nc1nc2ccc(C(=O)c3ccccc3)cc2[nH]1 [mebendazole, reference compound]
[8]
  C. elegans L1 relative development & viability: 1.000
[9]
  C. elegans L1 relative development & viability: 1.000
[10]
  C. elegans L1 relative development & viability: 1.000
[11]
  C. elegans L1 relative development & viability: 1.000
[12]
  C. elegans L1 relative development & viability: 1.000
[13]
  C. elegans L1 relative development & viability: 1.000
CB3474 G104D (ben-1), 125 µM, […]
  C. elegans L1 relative development & viability: 0.918
CB3474 G104D (ben-1), 250 µM, […]
  C. elegans L1 relative development & viability: 0.816
[14]
  C. elegans L1 relative development & viability: 1.000
[15]
  C. elegans L1 relative development & viability: 1.000
[16]
  C. elegans L1 relative development & viability: 1.000
[17]
  C. elegans L1 relative development & viability: 1.000
ECA917 F200Y (ben-1), 31.3 µM, […]
  C. elegans L1 relative development & viability: 0.958
ECA917 F200Y (ben-1), 62.5 µM, […]
  C. elegans L1 relative development & viability: 0.687
ECA917 F200Y (ben-1), 125 µM, […]
  C. elegans L1 relative development & viability: 0.515
ECA917 F200Y (ben-1), 250 µM, […]
  C. elegans L1 relative development & viability: 0.575
[18]
  C. elegans L1 relative development & viability: 1.000
[19]
  C. elegans L1 relative development & viability: 1.000
[20]
  C. elegans L1 relative development & viability: 1.000
[21]
  C. elegans L1 relative development & viability: 1.000
ECA1075 F167Y (ben-1), 31.3 µM, […]
  C. elegans L1 relative development & viability: 0.936
ECA1075 F167Y (ben-1), 62.5 µM, […]
  C. elegans L1 relative development & viability: 0.436
ECA1075 F167Y (ben-1), 125 µM, […]
  C. elegans L1 relative development & viability: 0.502
ECA1075 F167Y (ben-1), 250 µM, […]
  C. elegans L1 relative development & viability: 0.324
[22]
  C. elegans L1 relative development & viability: 1.000
[23]
  C. elegans L1 relative development & viability: 1.000
[24]
  C. elegans L1 relative development & viability: 1.000
[25]
  C. elegans L1 relative development & viability: 1.000
[26]
  C. elegans L1 relative development & viability: 1.000
ECA1080 E198A (ben-1), 62.5 µM, […]
  C. elegans L1 relative development & viability: 0.746
ECA1080 E198A (ben-1), 125 µM, […]
  C. elegans L1 relative development & viability: 0.386
ECA1080 E198A (ben-1), 250 µM, […]
  C. elegans L1 relative development & viability: 0.470
